Data reported in patent EP1724268A1, “COMPOUND HAVING TGF-BETA INHIBITORY ACTIVITY AND PHARMACEUTICAL COMPOSITION CONTAINING SAME” (KIRIN BEER KABUSHIKI KAISHA, priority 2004, dated 2005).
Where two headings read alike, the source gives them in different places.

Test system: TGFβ signal
Assay: TGFβ signal inhibitory activity, (SBE)4-Luc reporter in A549 cells (Test Examples 1A and 1B)
Assay type: cell-based, human
Conditions: Homo sapiens, A549, read-out: TGFβ inhibition rate, %
Outline: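 Stable A549 line carrying (SBE)4-Luc Smad3-binding reporter treated with compound plus TGFβ-1 (2 ng/ml) for 4 hr; luciferase read by chemiluminescence. Percent inhibition relative to TGFβ-only and untreated cells, tested at 3 µM and 10 µM, some also at 1 µM.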

[1] = 3 µM, compounds of Reference Examples (Test Example 1B)
[2] = 10 µM, compounds of Reference Examples (Test Example 1B)
[3] = test compound 3 µM, Reference Examples, Table 1B
[4] = test compound 10 µM, Reference Examples, Table 1B
[5] = test compound 3 µM, TGFβ-1 2 ng/ml, 4 hr, Table 1A
[6] = test compound 10 µM, TGFβ-1 2 ng/ml, 4 hr, Table 1A

Row | SMILES | inhibition at 3 µM [1] [%] | inhibition at 10 µM [2] [%] | further results
1 | CCOc1cccc(-c2nc(C)ccc2Oc2ccnc3cc(OC)c(OC)cc23)c1 [Compound r239] | 83 | 100 | –
2 | COC(=O)CCCCCCC(=O)c1cc(C)ccc1Oc1ccnc2cc(OC)c(OC)cc12 [r187] | 35 | 91 | –
3 | COc1ccc(Oc2ccnc3cc(O)c(OC)cc23)c(C(C)=O)c1 [r312] | 50 | 76 | –
4 | COc1cc2nccc(Oc3ccc(Cl)cc3C(N)=O)c2cc1OC [Compound r106] | – | – | inhibition at 3 µM [3]: 9%; inhibition at 10 µM [4]: 80%
5 | COc1cc2nccc(Oc3ccc(C)nc3-c3cccc(C#N)c3)c2cc1OC [Compound r234] | 87 | 100 | –
6 | C=CCON=C(C)c1cc(C)c(C)cc1Oc1ccnc2cc(OC)c(OC)cc12 [Compound r197] | 40 | 88 | –
7 | COc1ccc(C(C)=O)c(Oc2ccnc3cc(OC)c(OC)cc23)c1 [r31] | – | – | inhibition at 3 µM [3]: 49%; inhibition at 10 µM [4]: 98%
8 | COc1cc2nccc(Oc3ccc(C)cc3C(=O)N3CCCCC3)c2cc1OC [r109] | – | – | inhibition at 3 µM [3]: 5%; inhibition at 10 µM [4]: 66%
9 | COc1cc2nccc(Oc3cncc(Cl)c3)c2cc1OC [r208] | 18 | 73 | –
10 | COc1cc2nccc(Oc3ccc(C)nc3-c3ccccn3)c2cc1OC [r261] | 100 | 100 | –
11 | COc1cc2nccc(Oc3ccc(C)nc3-c3cc(F)cc(F)c3)c2cc1OC [Compound r254] | 100 | 100 | –
12 | Cc1ccc(Oc2ccnc3ccc(OCCC4CCCCC4)cc23)c(-c2ncccn2)n1 [Compound 216, 6-(2-Cyclohexylethoxy)-4-(6-methyl-2-pyrimidin-2-yl-pyridin-3-yloxy)-quinoline] | – | – | inhibition at 3 µM [5]: 84%
13 | COc1cc2nccc(Oc3cc4ccncc4cc3-c3ccccn3)c2cc1OC [Compound r303, 6,7-Dimethoxy-4-(7-pyridin-2-yl-isoquinolin-6-yloxy)-quinoline] | 96 | – | –
14 | COc1cc2c(Oc3cc4cccnc4nc3C)ccnc2cc1OCC1CO1 (stereo not shown) [Compound r401] | 24 | 76 | –
15 | COc1ccc(-c2nc(C)ccc2Oc2ccnc3cc(OC)c(OC)cc23)cc1 [Compound r249] | 52 | 98 | –
16 | COc1cc2nccc(Oc3cc4cccnc4nc3-c3ccccc3)c2cc1C(N)=O [Compound 66, 7-Methoxy-4-(2-phenyl-[1,8]naphthyridin-3-yloxy)-quinoline-6-carboxylic acid amide] | – | – | inhibition at 1 µM (test compound 1 µM, TGFβ-1 2 ng/ml, 4 hr, Table 1A): 97%; inhibition at 3 µM [5]: 100%
17 | COc1cc2nccc(Oc3cc(C)c(C)nc3-c3cccnc3)c2cc1OC [Compound r270] | 100 | – | –
18 | Cc1cc(Oc2ccnc3ccc(-c4ccsc4)cc23)c(-c2ccccn2)nc1C [Compound 163, 5,6-Dimethyl-3-(6-thiophen-3-yl-quinolin-4-yloxy)-[2,2']bipyridine] | – | – | inhibition at 3 µM [5]: 92%; inhibition at 10 µM [6]: 100%
19 | COc1cc2nccc(Oc3cc4cncnc4cc3C)c2cc1OC [Compound r305, 6-(6,7-Dimethoxy-quinolin-4-yloxy)-7-methyl-quinazoline] | 28 | 64 | –
20 | Cc1cc(Oc2ccnc3cc(OCCO)ccc23)c(-c2ccccn2)nc1C [Compound 143, 2-[4-(5,6-Dimethyl-[2,2']bipyridinyl-3-ylox)-quinolin-7-yloxy]-ethanol] | – | – | inhibition at 3 µM [5]: 100%; inhibition at 10 µM [6]: 100%
21 | CCCOC(=O)c1cc2ccccc2cc1Oc1ccnc2cc(OCCN3CCOCC3)c(OC)cc12 [Compound r323] | 89 | 100 | –
22 | c1ccc(-c2nc3ncccc3cc2Oc2ccnc3ccncc23)cc1 [Compound 74, 4-(2-Phenyl-[1,8]naphthyridin-3-yloxy)-[1,6]naphthyridine] | – | – | inhibition at 3 µM [5]: 53%; inhibition at 10 µM [6]: 90%
23 | CO/N=C(\C)c1cc(C)c(C)cc1Oc1ccnc2cc(OC)c(OC)cc12 [r196] | 41 | 83 | –
